According to PubChem BioAssay (NCI):
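Growth conditions: 96-well plates. Treatment: test compound, 48 hours, 5 concentrations. Analysis: linear interpolation between bracketing concentrations; unreached endpoints set to highest concentration. At the GI50, growth is halved. TGI denotes the concentration required for complete inhibition of growth.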

Assays:
Assay in all cases: NCI-60 cell line screen, 48 h
[1] = tested on: COLO 205 colon
[2] = tested on: SW-620 colon
[3] = tested on: RPMI-8226 leukemia
[4] = tested on: HCC-2998 colon
[5] = tested on: SK-MEL-5 melanoma
[6] = tested on: A549 NSCLC
[7] = tested on: UACC-257 melanoma
[8] = tested on: SR leukemia
[9] = tested on: MCF7 breast
[10] = tested on: OVCAR-5 ovarian
[11] = tested on: UO-31 renal
[12] = tested on: HL-60(TB) leukemia
[13] = tested on: MDA-MB-231 breast
[14] = tested on: T-47D breast
[15] = tested on: CAKI-1 renal
[16] = tested on: UACC-62 melanoma
[17] = tested on: SNB-19 CNS
[18] = tested on: NCI/ADR-RES ovarian
[19] = tested on: SK-MEL-2 melanoma
[20] = tested on: SF-539 CNS
[21] = tested on: HOP-62 NSCLC
[22] = tested on: RXF 393 renal
[23] = tested on: NCI-H23 lung
[24] = tested on: 786-0 renal
[25] = tested on: BT-549 breast
[26] = tested on: HCT-116 colon
[27] = tested on: A498 renal
[28] = tested on: MDA-MB-435
[29] = tested on: OVCAR-8 ovarian
[30] = tested on: MALME-3M melanoma
[31] = tested on: DU-145 prostate
[32] = tested on: U251 CNS
[33] = tested on: PC-3 prostate
[34] = tested on: K-562 leukemia
[35] = tested on: HCT-15 colon
[36] = tested on: HOP-92 NSCLC
[37] = tested on: HT29 colon
[38] = tested on: SK-OV-3 ovarian
[39] = tested on: SF-268 CNS
[40] = tested on: SNB-75 CNS
[41] = tested on: KM12 colon
[42] = tested on: OVCAR-4 ovarian
[43] = tested on: TK-10 renal
[44] = tested on: NCI-H226 lung
[45] = tested on: ACHN renal
[46] = tested on: IGROV1 ovarian
[47] = tested on: OVCAR-3 ovarian
[48] = tested on: CCRF-CEM leukemia
[49] = tested on: LOX IMVI melanoma
[50] = tested on: NCI-H460 lung
[51] = tested on: HS 578T breast
[52] = tested on: SN12C renal
[53] = tested on: NCI-H522 lung
[54] = tested on: SK-MEL-28 melanoma
[55] = tested on: MOLT-4 leukemia
[56] = tested on: SF-295 CNS
[57] = tested on: EKVX NSCLC
[58] = tested on: M14 melanoma

Cc1cc(/C=C2\SC(=Nc3ccccc3)N(C3CCCC3)C2=O)c(C)n1-c1ccc(Cl)cc1
GI50 [1]: > 100000 nM
TGI [1]: > 100 µM
GI50 [2]: > 100000 nM
TGI [2]: > 100 µM
GI50 [3]: > 100 µM
TGI [3]: > 100000 nM
GI50 [4]: > 100000 nM
TGI [4]: > 100 µM
GI50 [5]: > 100000 nM
TGI [5]: > 100000 nM
GI50 [6]: > 100000 nM
TGI [6]: > 100 µM
GI50 [7]: > 100000 nM
TGI [7]: > 100000 nM
GI50 [8]: > 100 µM
TGI [8]: > 100 µM
GI50 [9]: > 100 µM
TGI [9]: > 100 µM
GI50 [10]: > 100000 nM
TGI [10]: > 100 µM
GI50 [11]: > 100000 nM
TGI [11]: > 100 µM
GI50 [12]: > 100 µM
TGI [12]: > 100 µM
GI50 [13]: > 100 µM
TGI [13]: > 100 µM
GI50 [14]: > 100000 nM
TGI [14]: > 100 µM
GI50 [15]: > 100 µM
TGI [15]: > 100000 nM
GI50 [16]: > 100000 nM
TGI [16]: > 100000 nM
GI50 [17]: > 100 µM
TGI [17]: > 100 µM
GI50 [18]: > 100000 nM
TGI [18]: > 100 µM
GI50 [19]: > 100 µM
TGI [19]: > 100 µM
GI50 [20]: > 100000 nM
TGI [20]: > 100 µM
GI50 [21]: > 100000 nM
TGI [21]: > 100 µM
GI50 [22]: > 100000 nM
TGI [22]: > 100 µM
GI50 [23]: > 100000 nM
TGI [23]: > 100 µM
GI50 [24]: > 100000 nM
TGI [24]: > 100000 nM
GI50 [25]: > 100000 nM
TGI [25]: > 100 µM
GI50 [26]: > 100000 nM
TGI [26]: > 100 µM
GI50 [27]: 295 nM
TGI [27]: > 100 µM
GI50 [28]: > 100000 nM
TGI [28]: > 100 µM
GI50 [29]: > 100000 nM
TGI [29]: > 100 µM
GI50 [30]: > 100000 nM
TGI [30]: > 100 µM
GI50 [31]: > 100000 nM
TGI [31]: > 100 µM
GI50 [32]: > 100 µM
TGI [32]: > 100 µM
GI50 [33]: 75.5 µM
TGI [33]: > 100 µM
GI50 [34]: > 100 µM
TGI [34]: > 100 µM
GI50 [35]: > 100000 nM
TGI [35]: > 100 µM
GI50 [36]: > 100000 nM
TGI [36]: > 100 µM
GI50 [37]: > 100000 nM
TGI [37]: > 100 µM
GI50 [38]: > 100000 nM
TGI [38]: > 100 µM
GI50 [39]: > 100 µM
TGI [39]: > 100 µM
GI50 [40]: > 100 µM
TGI [40]: > 100 µM
GI50 [41]: > 100000 nM
TGI [41]: > 100 µM
GI50 [42]: > 100 µM
TGI [42]: > 100 µM
GI50 [43]: > 100 µM
TGI [43]: > 100 µM
GI50 [44]: > 100000 nM
TGI [44]: > 100 µM
GI50 [45]: > 100 µM
TGI [45]: > 100 µM
GI50 [46]: > 100000 nM
TGI [46]: > 100 µM
GI50 [47]: > 100000 nM
TGI [47]: > 100 µM
GI50 [48]: > 100 µM
TGI [48]: > 100000 nM
GI50 [49]: > 100 µM
TGI [49]: > 100 µM
GI50 [50]: > 100 µM
TGI [50]: > 100 µM
GI50 [51]: > 100 µM
TGI [51]: > 100 µM
GI50 [52]: > 100000 nM
TGI [52]: > 100000 nM
GI50 [53]: > 100000 nM
TGI [53]: > 100 µM
GI50 [54]: > 100000 nM
TGI [54]: > 100 µM
GI50 [55]: > 100 µM
TGI [55]: > 100 µM
GI50 [56]: > 100 µM
TGI [56]: > 100 µM

O=C1c2cc(Br)ccc2-c2c1c1ccc([N+](=O)[O-])cc1c(=O)n2CCCCl
GI50 [1]: 1390 nM
TGI [1]: > 100 µM
GI50 [2]: 53.3 nM
TGI [2]: > 100 µM
GI50 [3]: < 0.0289 µM
TGI [3]: 647 nM
GI50 [4]: 1550 nM
TGI [4]: 13 µM
GI50 [5]: 240 nM
TGI [5]: 1020 nM
GI50 [6]: 114 nM
TGI [6]: > 33.9 µM
GI50 [7]: 287 nM
TGI [7]: 2850 nM
GI50 [8]: < 0.01 µM
GI50 [57]: 10.6 µM
TGI [57]: > 100 µM
GI50 [9]: < 0.01 µM
TGI [9]: > 44 µM
GI50 [10]: 2570 nM
TGI [10]: 21.8 µM
GI50 [11]: 57.7 nM
TGI [11]: 3.43 µM
GI50 [13]: 12.9 µM
TGI [13]: > 96.1 µM
GI50 [14]: 14.4 nM
TGI [14]: 18.8 µM
GI50 [15]: < 0.0285 µM
TGI [15]: 2730 nM
GI50 [16]: 26.4 nM
TGI [16]: 1080 nM
GI50 [17]: < 0.01 µM
TGI [17]: 7.19 µM
GI50 [18]: 239 nM
TGI [18]: 7.9 µM
GI50 [19]: 10.8 µM
TGI [19]: 37.3 µM
GI50 [20]: 182 nM
TGI [20]: 3.31 µM
GI50 [21]: 837 nM
TGI [21]: 8.28 µM
GI50 [22]: 487 nM
TGI [22]: 14.2 µM
GI50 [23]: 1540 nM
TGI [23]: 8.04 µM
GI50 [24]: 659 nM
TGI [24]: 2260 nM
GI50 [25]: 2980 nM
TGI [25]: > 63.8 µM
GI50 [26]: 1050 nM
TGI [26]: 5.94 µM
GI50 [27]: 2200 nM
TGI [27]: 19.4 µM
GI50 [28]: 489 nM
TGI [28]: 6.12 µM
GI50 [29]: 293 nM
TGI [29]: 17.4 µM
GI50 [30]: 250 nM
TGI [30]: 7.74 µM
GI50 [31]: 84.9 nM
TGI [31]: 20.1 µM
GI50 [32]: < 0.0219 µM
TGI [32]: 15.6 µM
GI50 [33]: 0.184 µM
TGI [33]: > 100 µM
GI50 [34]: < 0.0495 µM
TGI [34]: > 43.7 µM
GI50 [35]: 1410 nM
TGI [35]: > 100 µM
GI50 [36]: 453 nM
TGI [36]: 23.9 µM
GI50 [37]: 309 nM
TGI [37]: 12.1 µM
GI50 [38]: 160 nM
TGI [38]: 16 µM
GI50 [39]: < 0.0258 µM
TGI [39]: 35.5 µM
GI50 [41]: 500 nM
TGI [41]: > 41.6 µM
GI50 [42]: 11.2 µM
TGI [42]: 77.7 µM
GI50 [43]: 13.8 µM
TGI [43]: > 57.2 µM
GI50 [44]: 100 nM
TGI [44]: 3.59 µM
GI50 [45]: < 0.0151 µM
TGI [45]: 6.79 µM
GI50 [46]: 130 nM
TGI [46]: 4.58 µM
GI50 [47]: 1110 nM
TGI [47]: 14.5 µM
GI50 [48]: < 0.01 µM
TGI [48]: 245 nM
GI50 [49]: < 0.0248 µM
TGI [49]: 5.12 µM
GI50 [50]: < 0.01 µM
TGI [50]: 5.4 µM
GI50 [58]: 534 nM
TGI [58]: 1780 nM
GI50 [51]: 19.5 µM
TGI [51]: > 72.5 µM
GI50 [52]: 34.7 nM
TGI [52]: 2200 nM
GI50 [53]: 63.6 nM
TGI [53]: 5.38 µM
GI50 [54]: 1610 nM
TGI [54]: > 100 µM
GI50 [55]: < 0.01 µM
GI50 [56]: < 0.0479 µM
TGI [56]: 3.56 µM
